# Laboratory results: PubChem BioAssay AID1996
# Settings: buffer; pH 7.4; 200.0 µM
row,solubility kinetic,Compound
1,8.7 µg/mL,Cc1cc(C(=O)OCC(=O)Nc2c(Cl)cccc2Cl)c(C)o1
2,2.3 µg/mL,Cc1ccc(C)c(N2CCN(CC3CCCCC3)CC2)c1
3,4 µg/mL,Clc1ccc(-c2nsc(N3CCOCC3)n2)c(Cl)c1
4,34.8 µg/mL,COc1ccc(-n2c(SC)nc3sc4c(c3c2=O)CCN(C)C4)cc1
5,29.9 µg/mL,CCOC(=O)c1c(N)sc(N)c1C(=O)OCC
6,> 31.4 µg/mL,CCC(=O)Nc1cc(OC)cc(OC)c1
7,5.3 µg/mL,O=C1COc2ccc(C(=O)COC(=O)c3ccc(F)cc3Cl)cc2N1
8,11.9 µg/mL,CCOC1=C/C(=C/c2c(N)n3oc(C)cc3nc2=O)C=CC1=O
9,> 55.6 µg/mL,COc1ccc(S(N)(=O)=O)cc1C(=O)OCC(=O)N1CCCC(C)C1 (stereo not given)
10,3.6 µg/mL,CCCc1c(C)[nH]c2nc3ccccc3n2c1=O
11,> 43.8 µg/mL,NS(=O)(=O)c1ccc(CNC(=O)c2cnccn2)cc1
12,25.9 µg/mL,O=C(NCCOc1ccc(Cl)cc1)c1ccco1
13,46.3 µg/mL,CC(C)(C#CC(O)(c1ccccc1)c1ccccc1)N1CCCCC1
14,26.2 µg/mL,O=c1[nH]c(=S)[nH]c2sc3c(c12)CCCCCC3
15,48.8 µg/mL,O=C(COC(=O)C1C2CC3OC(=O)C1C3C2)Nc1ccc(Cl)cc1 (stereo not given)
16,16.9 µg/mL,O=S(=O)(NCCC1=CCCCC1)c1ccc(F)cc1
17,24.4 µg/mL,COC(=O)C(N)Cc1ccc(O)c(O)c1.Cl (stereo not given)
18,37.5 µg/mL,CCN1CCN(C(=O)C(N)Cc2ccccc2)CC1 (stereo not given)
19,< 0.2 µg/mL,CS(=O)(=O)N1CCN(c2nc3ccc(Cl)cc3s2)CC1
20,> 41.4 µg/mL,O=[N+]([O-])c1ccc(SCCO)nc1SCCO

row,solubility kinetic,Compound
1,> 45.8 µg/mL,CC(C)Oc1ccccc1NC(=O)CSc1nccn1C
2,> 43.1 µg/mL,COc1cccc(C(=O)NOCc2ccccc2)c1OC
3,39 µg/mL,Cc1ccc(C(=O)NCCC(=O)N2CCCC2)cc1
4,15 µg/mL,Cc1nc(SCC(=O)Nc2ccc3[nH]c(=O)[nH]c3c2)nc(C)c1C
5,7.2 µg/mL,COC(=O)c1c(C)oc(C)c1S(=O)(=O)Nc1ccc(C(C)C)cc1
6,28.4 µg/mL,FC(F)(F)c1cccc(Cc2noc(CN3C[C@@H]4CCC[C@H]3C4)n2)c1
7,37.5 µg/mL,COc1ccccc1CCNC(=O)Cc1cccs1
8,> 33.2 µg/mL,O=C1[C@H](O)[C@@H](O)C(=O)N1Cc1ccccc1
9,10.6 µg/mL,Cc1ccc(N2C(=O)c3ccccc3C2C(=O)c2ccc(C)c(C)c2O)cc1 (stereo not given)
10,> 50.2 µg/mL,CCN(C(=O)COC(=O)c1cccnc1)c1cccc2ccccc12
11,< 0.3 µg/mL,CCOC(=O)c1ccc(NC(=S)NCc2ccccc2)cc1
12,> 55.8 µg/mL,Cc1onc(-c2c(Cl)cccc2Cl)c1NC(=O)NC1CCSC1 (stereo not given)
13,> 57.2 µg/mL,CN(C(=O)CN1CCN(c2ccccc2F)CC1)C1CCCc2ccccc21 (stereo not given)
14,> 53.2 µg/mL,Cc1ccccc1Nc1nc(N)nc(COC(=O)c2c(C)noc2C)n1
15,31.8 µg/mL,CNc1nc(-c2c(C)[nH]c3ccc(OC)cc23)cs1
16,> 44.3 µg/mL,CCc1c(C)nc(SCC(=O)NC2CCCC2)[nH]c1=O
17,9.8 µg/mL,COc1ccnc2c1c(=O)n(Cc1c(F)cccc1Cl)c(=O)n2C
18,> 52.2 µg/mL,Cn1cc(Br)c(-c2cccc(N3C(=O)CCCC3=O)c2)n1
19,> 41.8 µg/mL,COc1ccc(NC(=O)c2cccc(Cl)c2)c[n+]1[O-]
20,2 µg/mL,N#C/C(=C\c1cccc(O)c1)C(=O)Nc1ccc2c(c1)OCCO2

row,solubility kinetic,Compound
1,> 40.7 µg/mL,COCCNC(=O)C1Cc2c(ccc3ccccc23)O1 (stereo not given)
2,40 µg/mL,COc1ccc(-c2cccc(C(=O)N3CCOCC3)c2)cc1
3,14.8 µg/mL,COc1ccc(Nc2ncnc3sc(C)cc23)cc1.Cl
4,> 28.7 µg/mL,CCN(CC)C(=O)Cc1ccccc1
5,12.7 µg/mL,COc1cccc(/C=C/C(=O)NCc2ccc(S(N)(=O)=O)cc2)c1
6,> 53.2 µg/mL,O=C(c1ccco1)N1CCN(S(=O)(=O)c2cccc(Cl)c2)CC1
7,> 23 µg/mL,NC(CS(=O)O)C(=O)O (stereo not given)
8,47.4 µg/mL,COc1cccc(NC2=C(NCCO)C(=O)c3ccccc3C2=O)c1
9,39.6 µg/mL,CC(=O)Nc1ccc(OCCC[n+]2cccc(C(=O)[O-])c2)cc1
10,> 39.2 µg/mL,CC(C)(C)c1ccccc1NC(=O)C1=COCCO1
11,33.4 µg/mL,C=CCn1cccc(C(=O)Nc2ccc(C)c(C)c2)c1=O
12,> 30.5 µg/mL,N=C(N=C(N)N)N1CCc2ccccc21
13,40.6 µg/mL,O=C1C(=O)N(CC2COc3ccccc3O2)c2ccccc21 (stereo not given)
14,44.4 µg/mL,CC(=O)c1ccc(OCC(=O)Nc2ccccc2N2CCCC2)cc1
15,1.7 µg/mL,O=C1/C(=C/c2ccncc2)SC(=S)N1Cc1ccccc1
16,46.2 µg/mL,CC(NC(=O)COC(=O)c1c[nH]c2ccccc12)c1ccccc1 (stereo not given)
17,32.6 µg/mL,O=C(Oc1c(-c2ccccc2)c(=O)n2c3c(cccc13)CC2)c1ccco1
18,28.7 µg/mL,CCc1sc(C(=O)NCc2ccccc2)cc1C
19,10.2 µg/mL,CCn1cc(CCCC(=O)NCc2ccccc2OC)c2ccccc21
20,15.9 µg/mL,CCOC(=O)N1CCc2[nH]c3ccc(C)cc3c2C1
